Results published in patent publication US20260150841A1, “PYRIDINE COMPOUNDS FOR COMBATTING DIHYDROOROTATE-DEHYDROGENASE INHIBITOR-RESISTANT PHYTOPATHOGENIC FUNGI” (priority 2022, published 2026).
≈ marks a conversion by molar mass, not a printed value. Like-named read-outs stand apart in the source and are kept apart here.

Experiments:
Type in all cases: cell-based
[1] = system: Botrytis cinerea mutant G111E; test: Activity against Botrytis cinerea in the microtiter test, mutant G111E; conditions: for IC50: Botrytis cinerea, MUTANTG111E, 168 h, read-out: Absolute IC50, G111E, Botrytis cinerea mutant G111E, turbidity at 620 nm after 7 days
Excerpt: (§1) The active substances were formulated separately as a stock solution in dimethyl sulfoxide (DMSO) at a concentration of 10 000 ppm.
(§2) Spontaneous mutants were selected by plating out B. cinerea spores (in the range of 10^7-10^8) on DOB agar plates (3.4 g/l YNB (Becton Dickinson), 10 g/l Ammoniumsulfat, 40 g/l Glucose, 20 g/l Agar), amended with different lethal concentrations of active ingredient. After 7-14 days growing colonies were transferred to DOB agar plates, amended with the same lethal concentrations of active ingredient and then further propagated on Oatmeal agar medium (50 g/l Oatmeal agar (Sigma), 15 g/l Agar (Difco) for sensitivity testing.
(§3) Fungal strains used: • a) Botrytis cinerea (sensitive, wild-type) • b) Various mutants of Botrytis cinerea
(§4) The spores of Botrytis cinerea were harvested with a cotton swab from an Oatmeal agar plate (50 g/l Oatmealagar (Sigma, Art.O-3506), 15 g/l agar, (Difco) and this is dipped in 3 ml of double concentrated DOB-medium (3.4 g/l YNB (Becton Dickinson), 10 g/l Ammoniumsulfat, 40 g/l Glucose, adjusted to pH 7) and the spore suspension is adjusted to a spore density of 3.2×10^4 spores/ml. The compound solutions were diluted from stock solution in (dimethylsulfoxide) DMSO in several steps with sterile deionized water before use. High test concentrations were 50 mg/L (ppm) or 31 mg/L (ppm). Compound solutions were transferred into empty microplates and filled up with an equal amount of spore suspension.
(§5) The antifungal activity was determined by measuring the turbidity of a culture in 96-well microplates in the presence of test compounds after 7 days incubation at 620 nm. A blank value for each concentration (growth media+compound, without spores) are subtracted from the spore suspension. The relative antifungal activity was calculated by comparing the effect of the test compounds with the effect of a DMSO control The results are shown in Table IV (for compounds of general formula I.A), VI (for compounds of general formula I.B), and VIII (for compounds of general formula I.C).
(§6) A compound showing an IC50 (MUT) above the IC50 (WT) and showing an IC50 (MUT) to IC50 (WT) ratio being in a range above 100 is considered unsuitable (“I”) as DHODH inhibitor.
(§7) The absolute IC50-values (concentration of test compound resulting in 50% inhibition of fungal growth) were calculated from the resulting dose-response for each compound and strain.

[2] = system: Botrytis cinerea mutant Y208H; test: Activity against Botrytis cinerea in the microtiter test, mutant Y208H
Excerpt: as §1, §2, §3, §4, §5, §6, §7

[3] = system: Botrytis cinerea mutant G111V; test: Activity against Botrytis cinerea in the microtiter test, mutant G111V; conditions: for IC50: Botrytis cinerea, MUTANTG111V, 168 h, read-out: Absolute IC50, G111V, Botrytis cinerea mutant G111V, turbidity at 620 nm after 7 days
Excerpt: as §1, §2, §3, §4, §5, §6, §7

[4] = system: Botrytis cinerea mutant V195F; test: Activity against Botrytis cinerea in the microtiter test, mutant V195F; conditions: for IC50: Botrytis cinerea, MUTANTV195F, 168 h, read-out: Absolute IC50, V195F, Botrytis cinerea mutant V195F, turbidity at 620 nm after 7 days
Excerpt: as §1, §2, §3, §4, §5, §6, §7

[5] = system: Botrytis cinerea (sensitive, wild-type); test: Activity against Botrytis cinerea in the microtiter test, wild type; conditions: 168 h, turbidity at 620 nm after 7 days, read-out: Absolute IC50, wild type
Protocol: as §1, §3, §4, §5, §7

[6] = system: Botrytis cinerea mutant H108P; test: Activity against Botrytis cinerea in the microtiter test, mutant H108P; conditions: Botrytis cinerea, MUTANTH108P, 168 h, read-out: Absolute IC50, H108P, Botrytis cinerea mutant H108P; turbidity at 620 nm after 7 days
Excerpt: as §1, §2, §3, §4, §5, §6, §7

Structure (SMILES) | Relative antifungal activity expressed as IC50, G111V [3] | Relative antifungal activity expressed as IC50, V195F [4] | IC50 [4] [µg/mL] | IC50 ([5]; Botrytis cinerea) [µg/mL] | further results
Cc1cc(C2=NC3(CCC3)Oc3c2cccc3C(C)(C)C)cnc1C [Ex-14] | AA AA AA AA AA | AA AA AA AA AA | – | – | Relative antifungal activity expressed as IC50, G111E [1]: AA AA AA AA AA; Relative antifungal activity expressed as IC50, Y208H ([2]; {}): AA AA AA AA AA
Cc1cc(C2=NC(C)(C)Oc3c2cccc3C(C)(C)C)cnc1C [Ex-15] | AA AA AA | AA AA AA | – | – | –
Cc1cc(C2=NC(C(C)(C)C)Oc3ccccc32)cnc1C (stereo not drawn) [Ex-18] | AA AA AA AA | AA AA AA AA | – | – | Relative antifungal activity expressed as IC50, G111E [1]: AA AA AA AA
Cc1cc(C2=NC3(CCCC3)Oc3ccccc32)cnc1C(F)F [Ex-24] | – | – | 0.69 (≈ 2.1 µM) | – | IC50 [1]: 15.3 µg/mL (≈ 46.6 µM); IC50 [5]: 0.35 µg/mL (≈ 1.07 µM); IC50 [3]: 1.31 µg/mL (≈ 3.99 µM); IC50 [6]: 0.98 µg/mL (≈ 2.98 µM)
Cc1cc(C2=NC3(CCC3)Oc3ccccc32)cnc1C(F)F [Ex-25, 4-[6-(difluoromethyl)-5-methyl-3-pyridyl]spiro[1,3-benzoxazine-2,1′-cyclobutane]] | – | – | 0.08 (≈ 0.255 µM) | – | IC50 ([2]; Botrytis cinerea, MUTANTY208H, 168 h, read-out: Absolute IC50, Y208H, Botrytis cinerea mutant Y208H, turbidity at 620 nm after 7 days): 0.28 µg/mL (≈ 0.891 µM); IC50 [5]: 0.05 µg/mL (≈ 0.159 µM); IC50 [3]: 0.03 µg/mL (≈ 0.0954 µM); IC50 [6]: 0.02 µg/mL (≈ 0.0636 µM)
Cc1cc(C2=NC3(COC3)Oc3ccccc32)cnc1C [Ex-26] | AA AA AA AA | AA AA AA AA | – | – | Relative antifungal activity expressed as IC50, G111E [1]: AA AA AA AA
COc1ccc2c(c1)OC1(CCC1)N=C2c1cnc(C(F)F)c(C)c1 [Ex-37] | – | – | 0.11 (≈ 0.319 µM) | – | IC50 [1]: 0.54 µg/mL (≈ 1.57 µM); IC50 [5]: 0.03 µg/mL (≈ 0.0871 µM); IC50 [3]: 0.09 µg/mL (≈ 0.261 µM); IC50 [6]: 0.06 µg/mL (≈ 0.174 µM)
Cc1cc(C2=NC(C)(C)Nc3ccccc32)cnc1C [compound 39] | AA AA AA AA | AA AA AA AA | – | – | Relative antifungal activity expressed as IC50, G111E [1]: AA AA AA AA
Cc1ccc(S(=O)(=O)N2c3ccccc3C(c3cnc(C)c(C)c3)=NC2(C)C)cc1 [compound 42] | AA AA AA AA | AA AA AA AA | – | – | Relative antifungal activity expressed as IC50, G111E [1]: AA AA AA AA
Cc1cc(C2=NC(C)(C)COc3ccccc32)cnc1C [compound 51] | AA AA AA | AA AA AA | – | – | –
CC(C)(C)C1(C)N=C(c2cnc3c(F)cccc3c2)c2ccccc2O1 (stereo not drawn) [drawing 117, reference compound] | – | – | > 31 | – | IC50 [5]: 0.07 µg/mL (≈ 0.201 µM)
CC1(c2ccccc2)N=C(c2cnc3c(F)cccc3c2)c2cccc(F)c2O1 (stereo not drawn) [drawing 127, reference compound] | – | – | 15.5 (≈ 40.2 µM) | 0.04 (≈ 0.104 µM) | –
COc1ccc2c(c1)OC(C)(C)N=C2c1cnc2c(F)cccc2c1 [drawing 129, reference compound] | – | – | 5.28 (≈ 15.7 µM) | 0.01 (≈ 0.0297 µM) | –
CCN1c2c(F)cccc2C(c2cnc3c(F)cccc3c2)=NC1(C)C [drawing 141, reference compound] | – | – | > 31 | – | IC50 [5]: 0.02 µg/mL (≈ 0.0569 µM)
CC1(C)N=C(c2cnc3c(F)cccc3c2)c2ccccc2OC1(C)C [drawing 163, reference compound] | – | – | 2.84 (≈ 8.15 µM) | 0.001 (≈ 0.00287 µM) | –
Fc1cccc2cc(C3=NC4(CCCC4)Oc4ccccc43)cnc12 [reference compound] | – | – | 10.9 (≈ 32.8 µM) | 0.05 (≈ 0.15 µM) | –
CC1(C)N=C(c2cnc3c(F)cccc3c2)c2cccc(F)c2N1 [reference compound] | – | – | 4.42 (≈ 13.7 µM) | 0.005 (≈ 0.0155 µM) | –
CC1(C)CN=C(c2cnc3ccccc3c2)c2ccccc2O1 [reference compound] | – | – | 19.5 (≈ 64.6 µM) | 0.001 (≈ 0.00331 µM) | –
